Measurements from article PMC3057018, “Inhibition of Recombinant D-Amino Acid Oxidase from Trigonopsis variabilis by Salts” (Enzyme Research, 2011).

Assays:
[1] = target: T1, TvDAAO (recombinant His-tagged D-amino acid oxidase from Trigonopsis variabilis) (Trigonopsis variabilis, UniProt Q99042); assay: intrinsic tryptophan fluorescence (excitation […] nm) of reconstituted holoenzyme with NaCl; assay type: binding; design: gene DAO1; N-terminal hexahistidine tag, expressed in E. coli mainly as apoenzyme, metal-chelate purified, holoenzyme reconstituted with FAD; settings: 25 °C; FAD dissociation by NaCl followed indirectly; holoenzyme reconstituted with 5-fold FAD; noncovalent
[2] = target: T1, TvDAAO (recombinant His-tagged D-amino acid oxidase from Trigonopsis variabilis); assay: DNPH end-point assay of pyruvate at […] nm; assay type: biochemical; design: gene DAO1; N-terminal hexahistidine tag, expressed in E. coli mainly as apoenzyme, metal-chelate purified, holoenzyme reconstituted with FAD; settings: FAD added, potassium phosphate pH 8.0, 30 °C
[3] = target: T1, TvDAAO (recombinant His-tagged D-amino acid oxidase from Trigonopsis variabilis); assay: biochemical; design: gene DAO1

T1 sequence (Q99042 whole entry): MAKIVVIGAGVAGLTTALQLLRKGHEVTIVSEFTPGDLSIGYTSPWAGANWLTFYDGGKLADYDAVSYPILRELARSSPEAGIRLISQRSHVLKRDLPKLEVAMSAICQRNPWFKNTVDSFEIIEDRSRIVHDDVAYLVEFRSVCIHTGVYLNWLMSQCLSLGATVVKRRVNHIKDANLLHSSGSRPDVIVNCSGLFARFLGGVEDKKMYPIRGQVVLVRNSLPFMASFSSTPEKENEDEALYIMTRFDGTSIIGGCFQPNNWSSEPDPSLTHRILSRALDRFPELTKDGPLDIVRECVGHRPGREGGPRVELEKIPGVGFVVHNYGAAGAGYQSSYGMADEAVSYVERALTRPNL

## Cc1cc2nc3c(=O)[nH]c(=O)nc-3n(C[C@H](O)[C@H](O)[C@H](O)COP(=O)(O)OP(=O)(O)OC[C@H]3O[C@@H](n4cnc5c(N)ncnc54)[C@H](O)[C@@H]3O)c2cc1C [FAD]
[1]
  intrinsic tryptophan fluorescence (excitation 295 nm) of reconstituted holoenzym: Such an effect may be related to the loss of cofactor FAD

## C[C@@H](N)C(=O)O [D-alanine]
[2]
  DNPH end-point assay of pyruvate at 450 nm: measured the release of α-ketoacid from D-alanine during the reaction

## Cl [NaCl]
[3]
  Ki: 85 mM
